Measured values as given in patent US9505735B2, “Compounds for treating infectious diseases” (Whitehead Institute for Biomedical Research, priority 2012, dated 2016).

Tests used:
PIG-W = molecular target: T1, PIG-W (Homo sapiens, UniProt Q7Z7B1); assay: Growth of S. cerevisiae strain whose GWT1 is replaced by the human gene PIG-W; assay type: cell-based
T1 construct: expressed in transfected cells; host or cells: S. cerevisiae BY4741-derived gwt1 deletion shuttle strain carrying a pAG415GPD-based PIG-W plasmid
T1 sequence (Q7Z7B1 1-504): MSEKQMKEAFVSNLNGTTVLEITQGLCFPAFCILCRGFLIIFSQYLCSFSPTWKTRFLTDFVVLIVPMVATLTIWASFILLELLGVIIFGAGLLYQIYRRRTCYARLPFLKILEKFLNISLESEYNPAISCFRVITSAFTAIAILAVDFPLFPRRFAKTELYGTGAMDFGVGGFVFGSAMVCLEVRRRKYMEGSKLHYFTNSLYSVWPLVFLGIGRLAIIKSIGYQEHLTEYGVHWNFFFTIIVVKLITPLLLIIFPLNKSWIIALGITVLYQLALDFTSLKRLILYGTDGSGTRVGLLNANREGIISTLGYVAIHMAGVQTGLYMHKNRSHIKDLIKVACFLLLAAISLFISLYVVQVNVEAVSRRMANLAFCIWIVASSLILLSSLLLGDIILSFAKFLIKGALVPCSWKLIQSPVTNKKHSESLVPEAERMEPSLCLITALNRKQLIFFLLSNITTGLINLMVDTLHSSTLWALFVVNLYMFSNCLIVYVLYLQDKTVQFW
Protocol: Sensitivity to gepinacin was determined in 96-well, flat bottom microtiter plates using a modification of the NCCLS broth microdilution protocol CLS M27-A3 and RPMI as culture medium. Fungi were inoculated at ˜10^3 cells per ml and incubated for 48 hours at 37° C. after which plates were sealed, shaken and the optical density read at 600 nm (OD600) on a Tecan Safire 2 plate reader. All samples were run in duplicate or triplicate and assays were repeated at least once. Results are expressed as fraction of growth in the absence of compound and the mean and standard deviation are plotted. For the mold A. terreus, inoculum was 10^4 cells per ml and plates were incubated at 35° C. for 48 hours in the dark. Plates were then visually scored as specified by CLSI document M38-A2 to determine the MIC50 and MIC80.
Because GWT1 deletion is lethal in S. cerevisiae strain BY4741, a haploid shuttle strain was constructed in which the genomic copy of GWT1 was deleted and replaced by GWT1 on a plasmid that also encoded the URA3 gene and a G418-resistance gene. […]
An S. cerevesiae strain was generated in which the endogenous Gwt1 gene was deleted. […] Shown in FIGS. 22A-D show the effect of the indicated compounds on growth (assessed by OD600) and viability (assessed using Bactiter Glo) of the yeast strain with high copy or low copy plasmid containing S. cerevesiae Gwt1. […]

[1] = tested on: S. cerevisiae strain Sigma 1278B; assay: Filamentation on solid media; assay type: cell-based; conditions: 5 μM, 6 days
Protocol: For liquid assays, C. albicans strains were grown overnight in YPD with DMSO or 5 μM gepinacin. After dilution to an OD600 of 0.1 in Spider media, growth was continued for an additional 3 hours with agitation at 37° C. in the presence of compound before transfer to a 24 well plate for imaging (Shen, et al. (2008) Proc Natl Acad Sci USA 105, 20918-20923). Assays with S. cerevisiae strain Sigma 1278B on solid media were performed as previously described (Liu, et al. (1994) Science 266, 1723-1726) except gepinacin was added directly to partially cooled plate media and colonies were imaged after growth for 6 or 9 days at 30° C.

Structure (SMILES): COc1ccc(NC(=O)COc2cccc(OCC(C)C)c2)cc1 [gepinacin]
- activity against PigW / in the PIG-W expressing strain (PIG-W): inactive
- filamentation on solid media [1]: blocked filamentation
